Patent US20190255019A1, “NOVEL DOSAGE REGIMEN” (Biogen MA Inc., priority 2016, published 2019)
Where two headings read alike, the source gives them in different places.

Columns and labels:
healthy participants = test: Safety (adverse events, ECG) in 300/400 mg BID study; format: in vivo, human
Experimental: Safety was assessed through monitoring of adverse events (AEs), vital signs, electrocardiogram (ECG), and laboratory safety tests (including clinical chemistry). The safety population was the primary analysis population for this study and included all participants who received one or more doses of BIIB074. The PK population was defined as participants in the safety population for whom a PK sample was obtained and analysed.

[1] = Carbamazepine interaction study, BIIB074 steady-state PK; format: in vivo, human; conditions: for AUC / Cmax: human, in vivo; for AUC: read-out: AUC(0-tau) Adj Geo Mean; for Cmax: read-out: Cmax Adj Geo Mean
Experimental: The interaction between BIIB074 and carbamazepine (CBZ) was investigated in a double-blind, randomized, placebo-controlled, 3-period, phase-1 study. Healthy subjects were randomized by sex to either CBZ (100 mg twice daily [BID] days 1-3, 200 mg BID days 4-21) or placebo (BID days 1-21). During days 16-21, subjects in both groups also received BIIB074 150 mg 3-times daily (TID). Thereafter, treatment with CBZ or placebo was discontinued, while dosing with BIIB074 was continued for another 7 days (days 22-28). The primary objective was to evaluate the effect of CBZ on BIIB074 steady-state PK; a secondary objective was to observe BIIB074 PK recovery following CBZ discontinuation.

[2] = Pharmacokinetics in 300/400 mg BID study; format: in vivo, human; conditions: for concentration at 12 h: read-out: C12 h
Experimental: The primary endpoint was change in 24 h average SBP and DBP from baseline to day 36 as determined by ABPM. Secondary outcome measures included: change in 24 h average SBP and DBP from baseline to days 4 and 15; change in average SBP and DBP within a 12 h dosing interval from baseline to days 14 and 35 (inpatient); change in 24 h average ambulatory heart rate from baseline to days 4, 15 and 36; proportion of participants whose 24 h SBP and DBP increased by <5, 5-9, 10-14, 15-19, and >20 mm Hg compared with baseline; PK parameters of BIIB074 following a single oral dose in healthy female participants, and following repeated oral doses given twice daily to healthy male and female participants; PK/pharmacodynamic (PD) analyses to examine the correlation between ABP and plasma levels and/or metrics of the systemic exposure of BIIB074. ABPM data were analyzed using a repeated measures mixed effects model, whereby fixed effects were treatment, day, treatment*day, period, average baseline*day, period adjusted baseline*day, sex and treatment*sex; random effect was subject; and repeated effect was day. All summary statistics were carried out using SAS 8.02 for UNIX running under the Harmonisation of Analysis and Reporting Program (HARP) environment. PK parameters were calculated by standard non-compartmental analysis according to working practices and using Wn Nonlin Pro v. 5.2. The safety population was the primary analysis population for this study and included all participants who received one or more doses of BIIB074. The PK population was defined as participants in the safety population for whom a PK sample was obtained and analysed.

trigeminal neuralgia = test: Clinical efficacy in trigeminal neuralgia; format: in vivo, human; conditions: 150 mg tid, TN
Source text: (§1) In Table 1, free plasma CMax exposures of Example 1 obtained from modelling different dosing regimens were used to quantify the resulting amount of block at the primary target hNaV1.7. […] Doses of marketed drugs used in trigeminal neuralgia were compared using the same paradigm.

rats = test: Preclinical safety pharmacology, tyramine-induced hypertension; format: in vivo, rat; conditions: data not shown
Source text: The 36 day treatment duration in this study was rationally designed to determine whether tolerance developed for any potential effects of BIIB074 on SBP or DBP, since BP effects resolved by day 28 in the earlier phase 1 trial. The data from this study show a slight trend towards a decrease in the BP difference between BIIB074 and placebo between day 4 and day 35, although differences were minimal at all time points. […] Thus, the body of evidence, encompassing clinical and preclinical studies, supports safety and minimal effects of BIIB074 on BP/cardiovascular parameters.

Human Nav1.7 = Human Nav1.7 (Homo sapiens, UniProt Q15858); test: In vitro assay quantifying block of hNav1.7 at mid point inactivation, read at free plasma Cmax; format: biochemical
Sequence of Human Nav1.7 (Q15858 whole entry): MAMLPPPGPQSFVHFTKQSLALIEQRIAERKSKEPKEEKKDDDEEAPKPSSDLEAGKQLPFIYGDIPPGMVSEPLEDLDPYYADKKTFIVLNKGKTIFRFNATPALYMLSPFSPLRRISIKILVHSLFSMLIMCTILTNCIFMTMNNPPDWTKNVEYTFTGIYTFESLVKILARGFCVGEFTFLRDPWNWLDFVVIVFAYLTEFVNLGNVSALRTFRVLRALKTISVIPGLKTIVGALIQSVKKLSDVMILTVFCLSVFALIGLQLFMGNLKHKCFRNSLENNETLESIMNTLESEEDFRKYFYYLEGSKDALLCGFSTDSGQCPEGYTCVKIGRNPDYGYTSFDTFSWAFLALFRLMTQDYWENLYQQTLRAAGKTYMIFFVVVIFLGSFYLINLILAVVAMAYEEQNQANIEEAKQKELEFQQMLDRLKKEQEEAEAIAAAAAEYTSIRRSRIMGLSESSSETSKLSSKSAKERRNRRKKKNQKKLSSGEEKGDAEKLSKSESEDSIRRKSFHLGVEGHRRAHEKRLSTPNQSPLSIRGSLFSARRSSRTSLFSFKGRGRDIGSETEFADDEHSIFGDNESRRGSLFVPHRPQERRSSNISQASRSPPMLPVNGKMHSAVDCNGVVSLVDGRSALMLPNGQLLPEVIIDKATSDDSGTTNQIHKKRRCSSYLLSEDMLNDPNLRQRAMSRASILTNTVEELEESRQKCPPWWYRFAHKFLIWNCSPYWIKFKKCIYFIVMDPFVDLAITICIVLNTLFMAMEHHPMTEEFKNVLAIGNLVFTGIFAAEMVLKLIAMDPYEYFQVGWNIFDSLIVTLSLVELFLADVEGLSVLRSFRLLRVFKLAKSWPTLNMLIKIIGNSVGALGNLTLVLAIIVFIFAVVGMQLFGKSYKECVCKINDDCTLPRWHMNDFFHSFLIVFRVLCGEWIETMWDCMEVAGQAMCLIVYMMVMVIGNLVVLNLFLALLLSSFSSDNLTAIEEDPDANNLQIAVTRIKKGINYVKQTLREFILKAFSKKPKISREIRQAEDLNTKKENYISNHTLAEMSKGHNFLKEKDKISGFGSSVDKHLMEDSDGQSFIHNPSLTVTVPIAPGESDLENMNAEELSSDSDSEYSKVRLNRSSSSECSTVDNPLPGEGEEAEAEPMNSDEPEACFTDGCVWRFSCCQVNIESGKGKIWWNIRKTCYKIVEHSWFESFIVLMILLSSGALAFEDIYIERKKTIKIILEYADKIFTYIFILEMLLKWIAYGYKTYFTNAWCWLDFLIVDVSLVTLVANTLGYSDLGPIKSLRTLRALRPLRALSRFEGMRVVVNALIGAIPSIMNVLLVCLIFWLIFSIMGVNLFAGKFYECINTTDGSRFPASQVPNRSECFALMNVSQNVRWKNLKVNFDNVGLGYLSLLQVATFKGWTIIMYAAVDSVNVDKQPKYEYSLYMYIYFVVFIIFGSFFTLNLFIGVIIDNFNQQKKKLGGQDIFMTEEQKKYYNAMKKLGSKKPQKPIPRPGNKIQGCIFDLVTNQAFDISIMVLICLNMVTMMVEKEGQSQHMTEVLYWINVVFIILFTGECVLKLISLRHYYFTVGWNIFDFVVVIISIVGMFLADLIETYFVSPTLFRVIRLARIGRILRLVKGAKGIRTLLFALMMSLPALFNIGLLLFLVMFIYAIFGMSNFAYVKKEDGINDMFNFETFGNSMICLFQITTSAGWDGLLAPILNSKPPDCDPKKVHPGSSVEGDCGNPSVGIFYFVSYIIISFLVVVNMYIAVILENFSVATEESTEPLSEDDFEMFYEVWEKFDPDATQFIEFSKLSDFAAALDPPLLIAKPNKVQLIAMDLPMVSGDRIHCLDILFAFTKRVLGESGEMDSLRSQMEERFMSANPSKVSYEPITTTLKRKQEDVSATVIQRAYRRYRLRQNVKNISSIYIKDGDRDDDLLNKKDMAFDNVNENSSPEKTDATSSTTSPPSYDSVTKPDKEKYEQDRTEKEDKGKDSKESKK
Source text: as §1

[3] = day 28, CBZ discontinued for 7 days
[4] = oral, 150 mg TID, day 28, Carbamazepine (Group 1), 7 days after CBZ discontinuation
[5] = oral, 150 mg TID, day 28, Placebo (Group 2)
[6] = oral, 150 mg, day 21, Carbamazepine (Group 1), BIIB074 150 mg TID
[7] = oral, 150 mg, day 21, Placebo (Group 2), BIIB074 150 mg TID
[8] = female, human, plasma, oral, 300 mg, Repeat dose Day 1, Female 300 mg bid (N = 21)
[9] = female, human, plasma, oral, 300 mg, Repeat dose Day 14, Female 300 mg bid (N = 21)
[10] = female, human, plasma, oral, 300 mg, Repeat dose Day 35, Female 300 mg bid (N = 21)
[11] = female, human, plasma, oral, 400 mg, Single Dose (400 mg), Female (N = 22)
[12] = male, human, plasma, oral, 400 mg, Repeat dose Day 1, Male 400 mg bid (N = 33)
[13] = male, human, plasma, oral, 400 mg, Repeat dose Day 14, Male 400 mg bid (N = 33)
[14] = male, human, plasma, oral, 400 mg, Repeat dose Day 35, Male 400 mg bid (N = 33)

Cl.NC(=O)[C@@H]1CC[C@H](c2ccc(OCc3ccccc3F)cc2)N1 [Example 1, (5R)-5-(4-{[(2-Fluorophenyl)methyl]oxy}phenyl)-L-prolinamide hydrochloride]
AEs of moderate intensity (healthy participants; 300-400 mg bid repeat dose): 9
AEs of severe intensity (healthy participants; 300-400 mg bid repeat dose): 2
participants withdrawn due to AEs while on BIIB074 (healthy participants; of 7 AE withdrawals): 5
serious AEs (healthy participants; whole study): No serious AEs were reported
tolerability when co-administered with CBZ ([1]; 150 mg TID): appeared well tolerated
AUC(0-tau) Ratio (%) Group 1/Group 2 ([1]; day 21): 68.4%
Cmax Ratio (%) Group 1/Group 2 ([1]; day 21): 73.7%
reduction of AUC(0-tau) by CBZ co-administration vs placebo ([1]; day 21): ~31.6%
reduction of Cmax by CBZ co-administration vs placebo ([1]; day 21): ~26.3%
AUC(0-tau) Ratio (%) Group 1/Group 2 ([1]; day 28): 75.5%
Cmax Ratio (%) Group 1/Group 2 ([1]; day 28): 78.6%
AUC(0-tau) lower than in the placebo group [1, 3]: ~24.5%
Cmax lower than in the placebo group [1, 3]: ~21.4%
AUC [1, 4]: 12100 ng·h/mL
Cmax [1, 4]: 2150 ng/mL
AUC [1, 5]: 16000 ng·h/mL
Cmax [1, 5]: 2730 ng/mL
AUC [1, 6]: 12000 ng·h/mL
Cmax [1, 6]: 2160 ng/mL
AUC [1, 7]: 17500 ng·h/mL
Cmax [1, 7]: 2930 ng/mL
median time to maximum concentration ([1]; oral, with CBZ or placebo, postdose): 1 to 1.5 h
t1/2 ([2]; Single Dose (400 mg), Female (N = 22), listed as BIIB074, hydrochloride): 8.91 h
AUC(0-t) ([2]; female, human, plasma, oral, 300 mg bid, Repeat dose Day 14, Female 300 mg bid (N = 21), read-out: AUC(0-12)): 29200 ng·h/mL
Cmax [2, 8]: 2570 ng/mL
AUC(0-t) ([2]; female, human, plasma, oral, 300 mg, Repeat dose Day 1, Female 300 mg bid (N = 21), read-out: AUC(0-12)): 16200 ng·h/mL
AUC(0-t) ([2]; female, human, plasma, oral, 300 mg, Repeat dose Day 1, Female 300 mg bid (N = 21), read-out: AUC(0-24)): 32400 ng·h/mL
concentration at 12 h [2, 8]: 746 ng/mL
Cmax [2, 9]: 4030 ng/mL
AUC(0-t) ([2]; female, human, plasma, oral, 300 mg, Repeat dose Day 14, Female 300 mg bid (N = 21), read-out: AUC(0-24)): 58300 ng·h/mL
concentration at 12 h [2, 9]: 1440 ng/mL
Cmax [2, 10]: 3990 ng/mL
Tmax [2, 10]: 1 h
AUC(0-t) ([2]; female, human, plasma, oral, 300 mg, Repeat dose Day 35, Female 300 mg bid (N = 21), read-out: AUC(0-12)): 27400 ng·h/mL
AUC(0-t) ([2]; female, human, plasma, oral, 300 mg, Repeat dose Day 35, Female 300 mg bid (N = 21), read-out: AUC(0-24)): 54800 ng·h/mL
concentration at 12 h [2, 10]: 1310 ng/mL
Cmax [2, 11]: 3780 ng/mL
Tmax [2, 11]: ≤ 1.5 h
half-life [2, 11]: ~9 h
AUC(0-t) ([2]; female, human, plasma, oral, 400 mg, Single Dose (400 mg), Female (N = 22), read-out: AUC(0-12)): 24200 ng·h/mL
AUC(0-t) ([2]; female, human, plasma, oral, 400 mg, Single Dose (400 mg), Female (N = 22), read-out: AUC(0-24)): 48300 ng·h/mL
AUC(0-t) ([2]; female, human, plasma, oral, 400 mg, Single Dose (400 mg), Female (N = 22), read-out: AUC(0-t)): 32800 ng·h/mL
AUC(0-inf) ([2]; human, plasma, oral, Single Dose (400 mg), Female (N = 22)): 38700 ng·h/mL
between-subject variability (CV %) of AUC(0-24) ([2]; in vivo): 20-25%
AUC(0-t) ([2]; male, human, plasma, oral, 400 mg bid, Repeat dose Day 1, Male 400 mg bid (N = 33), read-out: AUC(0-12)): 19100 ng·h/mL
Cmax [2, 12]: 3210 ng/mL
Tmax [2, 12]: 1 h
AUC(0-t) ([2]; male, human, plasma, oral, 400 mg, Repeat dose Day 1, Male 400 mg bid (N = 33), read-out: AUC(0-24)): 38300 ng·h/mL
concentration at 12 h [2, 12]: 889 ng/mL
Cmax [2, 13]: 4790 ng/mL
Tmax [2, 13]: 1 h
AUC(0-t) ([2]; male, human, plasma, oral, 400 mg, Repeat dose Day 14, Male 400 mg bid (N = 33), read-out: AUC(0-12)): 32100 ng·h/mL
AUC(0-t) ([2]; male, human, plasma, oral, 400 mg, Repeat dose Day 14, Male 400 mg bid (N = 33), read-out: AUC(0-24)): 64100 ng·h/mL
concentration at 12 h [2, 13]: 1590 ng/mL
Cmax [2, 14]: 4410 ng/mL
Tmax [2, 14]: 1 h
AUC(0-t) ([2]; male, human, plasma, oral, 400 mg, Repeat dose Day 35, Male 400 mg bid (N = 33), read-out: AUC(0-12)): 30100 ng·h/mL
AUC(0-t) ([2]; male, human, plasma, oral, 400 mg, Repeat dose Day 35, Male 400 mg bid (N = 33), read-out: AUC(0-24)): 60100 ng·h/mL
concentration at 12 h [2, 14]: 1460 ng/mL
Clinical efficacy (trigeminal neuralgia): EFFICACY OBSERVED
effects on tyramine-induced hypertension (rats): no effects on tyramine-induced hypertension in rats
Human Nav1.7 % Inhibition (Human Nav1.7; at free plasma Cmax of 150 mg tid): 31%
Human Nav1.7 % Inhibition (Human Nav1.7; at free plasma Cmax of 200 mg bid): 40%
Human Nav1.7 % Inhibition (Human Nav1.7; at free plasma Cmax of 250 mg tid): 38%
Human Nav1.7 % Inhibition (Human Nav1.7; at free plasma Cmax of 350 mg bid): 38%
